Reference: patent US10544154B2, “Opioid receptor antagonist prodrugs” (Nirsum Laboratories, Inc., priority 2017, dated 2020)

What was measured:
[1] = Liver S9 fraction stability, cynomolgus monkey; format: in vitro ADME; conditions: 2 μM, 1.0 mg/ml S9 protein, 37° C.
Protocol: (§1) Liver S9 fraction stability determination of the test compounds in dog, cynomolgus monkey and human is performed using HPLC-MS. Test compound (2 μM, 0.1% DMSO, 1% Methanol final concentration) was assessed for stability in a 50 μl phosphate buffer containing 1.0 mg/ml S9 protein from each of the three species and 5 mM D-saccharic acid-1, 4-lactone. Samples were incubated at 37° C. for 60 minutes and the % compound remaining was assessed.

[2] = Plasma stability, cynomolgus monkey plasma (HPLC-MS); format: in vitro ADME; conditions: 2 μM, 37° C., 0 min
Protocol: (§2) Plasma stability determination of the test compounds in rat, dog, cynomolgus monkey and human plasma is performed using HPLC-MS. For rat, incubations are carried out in 96-well polypropylene plates in 5 aliquots of 70 μL each (one for each time point). […] Five time points are analyzed (0, 15, 120, 480 and 1440 min). […] All incubations are performed in duplicates. The samples are analyzed by HPLC-MS. The percentage of parent compound remaining after incubation in plasma is determined.

[3] = Plasma stability, human plasma (HPLC-MS); format: in vitro ADME; conditions: 2 μM, 37° C.
Protocol: as §2

[4] = Plasma stability, dog plasma (HPLC-MS); format: in vitro ADME; conditions: 2 μM, 37° C.
Protocol: Plasma stability determination of the test compounds in rat, dog, cynomolgus monkey and human plasma is performed using HPLC-MS. For rat, incubations are carried out in 96-well polypropylene plates in 5 aliquots of 70 μL each (one for each time point). […] Five time points are analyzed (0, 15, 120, 480 and 1440 min). For dog, monkey and human, test compounds (2 μM, final solvent concentration 1%) were also incubated at 37° C. and analyzed at five time points (0, 10, 30, 60 and 120 min). All incubations are performed in duplicates. The samples are analyzed by HPLC-MS. The percentage of parent compound remaining after incubation in plasma is determined.

[5] = Liver S9 fraction stability, dog; format: in vitro ADME; conditions: 2 μM, 1.0 mg/ml S9 protein, 37° C.
Protocol: as §1

[6] = Plasma stability, rat plasma (HPLC-MS); format: in vitro ADME; conditions: 10 μM, 37° C.
In short: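 Compound is added to plasma (dog, monkey, human: 2 μM final, 1% solvent) and held at 37 °C, with aliquots taken at 0, 10, 30, 60 and 120 min; rat samples are taken at 0, 15, 120, 480 and 1440 min. Parent remaining (%) is then determined by HPLC-MS.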

[7] = Clinical observations for dogs in pharmacokinetic studies; format: in vivo, Beagle dogs; conditions: 48 mg/kg DeepIM
In short: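 Body weight checked weekly and used on dosing morning to set volume. Formulation (400 mg base equivalents/ml, sesame oil with 1% benzyl alcohol, unless otherwise specified) given by deep intramuscular injection into thigh muscle under propofol (6 mg/kg IV) sedation, vehicle into the opposite side; sites may rotate on repeat dosing.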

[8] = Liver S9 fraction stability, human; format: in vitro ADME; conditions: 2 μM, 1.0 mg/ml S9 protein, 37° C.
Protocol: as §1

C=C1CC[C@@]2(O)C3Cc4ccc(OCOC(=O)OCCCCCCCCCCCC)c5c4[C@@]2(CCN3CC2CC2)[C@H]1O5 [Compound 24, (((4aS,7aS,12bS)-3-(cyclopropylmethyl)-4a-hydroxy-7-methylene-2,3,4,4a,5,6,7,7a-octahydro-1H-4,12-methanobenzofuro[3,2-e]isoquinolin-9-yl)oxy)methyl dodecyl carbonate]
Liver S9 Fraction Stability, % remaining at 60 minutes, Monkey [1]: 3% | % remaining at time point in minutes, 0 min [2]: 100% | % remaining at time point in minutes, 0 min ([3]; 0 min): 100% | % remaining at time point in minutes, 15 min ([3]; 15 min): 94% | % remaining at time point in minutes, 0 min [4]: 100% | Liver S9 Fraction Stability, % remaining at 60 minutes, Dog [5]: 3.6% | % remaining at time point in minutes, 0 min ([6]; 0 min): 100% | % remaining at time point in minutes, 15 min ([6]; 15 min): 32% | % remaining at time point in minutes, 480 min ([6]; 480 min): 8.2% | % remaining at time point in minutes, 1440 min ([6]; 1440 min): 3% | BT ([7]; dog D1501, 24 hr): 38.8 | BT ([7]; dog D1501, 96 hr): limb/BT: 39.2 | BT ([7]; dog D1501, 120 hr): 39.2 | BT ([7]; dog D1501, 144 hr): 39.6 | BT ([7]; dog D1501, 192 hr): calf/BT: 39.0 | BT ([7]; dog D1501, 216 hr): 8 * 5 cm/BT: 39.0 | BT ([7]; dog D1501, 240 hr): 8 * 5 cm/BT: 39.0 | BT ([7]; dog D1501, 264 hr): 6 * 5 cm/BT: 38.9 | BT ([7]; dog D1501, 288 hr): 6 * 5 cm/BT: 38.9 | BT ([7]; dog D1501, […]): 39.6 | BT ([7]; dog D1502, 96 hr): groin/red/BT: 38.3 | BT ([7]; dog D1502, 120 hr): groin/red/BT: 38.7 | BT ([7]; dog D1502, 144 hr): groin/red/BT: 38.3 | BT ([7]; dog D1502, 192 hr): groin/red/BT: 38.5 | BT ([7]; dog D1502, 216 hr): groin/red/BT: 38.4 | BT ([7]; dog D1502, 240 hr): leg/red/BT: 38.9 | BT ([7]; dog D1502, 264 hr): leg/red/BT: 38.3 | BT ([7]; dog D1502, 288 hr): leg/red/BT: 38.5 | BT ([7]; dog D1502, […]): groin/red/BT: 38.4 | BT ([7]; third dog (head prints D1502), 144 hr): 8 * 8 cm/BT: 39.5 | BT ([7]; third dog (head prints D1502), 192 hr): 8 * 8 cm/BT: 38.0 | BT ([7]; third dog (head prints D1502), 216 hr): 8 * 8 cm/BT: 38.8 | BT ([7]; third dog (head prints D1502), 240 hr): 8 * 8 cm/BT: 39.2 | BT ([7]; third dog (head prints D1502), 264 hr): 8 * 8 cm/BT: 38.9 | BT ([7]; third dog (head prints D1502), 288 hr): 8 * 8 cm/BT: 38.8 | BT ([7]; third dog (head prints D1502), […]): 8 * 8 cm/BT: 39.3 | Liver S9 Fraction Stability, % remaining at 60 minutes, Human [8]: 3.5%
